Reference: ChEMBL document CHEMBL5512655, “Discovery of indolylacryloyl-derived oxacins as novel potential broad-spectrum antibacterial candidates” (Eur J Med Chem, 2024)
Values after ≈ are worked out from the molar mass of the structure shown.

Assays:
Format in all cases: functional
Pseudomonas aeruginosa [1] = experiment: Antibacterial activity against Pseudomonas aeruginosa assessed as inhibition of bacterial growth measured after 24 hrs incubation
Klebsiella pneumoniae = experiment: Antibacterial activity against Klebsiella pneumonia assessed as inhibition of bacterial growth measured after 24 hrs incubation
Enterococcus faecalis = experiment: Antibacterial activity against Enterococcus faecalis assessed as inhibition of bacterial growth measured after 24 hrs incubation
Acinetobacter baumannii = experiment: Antibacterial activity against Acinetobacter baumannii assessed as inhibition of bacterial growth measured after 24 hrs incubation
Staphylococcus aureus [2] = experiment: Antibacterial activity against Staphylococcus aureus assessed as inhibition of bacterial growth measured after 24 hrs incubation
Escherichia coli [3] = experiment: Antibacterial activity against Escherichia coli assessed as inhibition of bacterial growth measured after 24 hrs incubation
Staphylococcus aureus [4] = experiment: Antibacterial activity against Staphylococcus aureus ATCC 25923 assessed as inhibition of bacterial growth measured after 24 hrs incubation
Pseudomonas aeruginosa [5] = experiment: Antibacterial activity against Pseudomonas aeruginosa ATCC 27853 assessed as inhibition of bacterial growth measured after 24 hrs incubation
Staphylococcus aureus [6] = experiment: Antibacterial activity against methicillin-resistant Staphylococcus aureus N315 assessed as inhibition of bacterial growth measured after 24 hrs incubation
Staphylococcus aureus [7] = experiment: Antibacterial activity against Staphylococcus aureus ATCC 29213 assessed as inhibition of bacterial growth measured after 24 hrs incubation
Escherichia coli [8] = experiment: Antibacterial activity against Escherichia coli ATCC 25922 assessed as inhibition of bacterial growth measured after 24 hrs incubation

## CCn1cc(C(=O)O)c(=O)c2cc(F)c(N3CCN(C(=O)/C(C#N)=C/c4c[nH]c5cc(F)ccc45)CC3)cc21
Pseudomonas aeruginosa [1]
  MIC: 1 µg/mL (≈ 1.88 µM)
Klebsiella pneumoniae
  MIC: 0.5 µg/mL (≈ 0.941 µM)
Enterococcus faecalis
  MIC: 8 µg/mL (≈ 15.1 µM)
Acinetobacter baumannii
  MIC: 2 µg/mL (≈ 3.76 µM)
Staphylococcus aureus [2]
  MIC: 1 µg/mL (≈ 1.88 µM)
Escherichia coli [3]
  MIC: 4 µg/mL (≈ 7.53 µM)
Staphylococcus aureus [4]
  MIC: 4 µg/mL (≈ 7.53 µM)
Pseudomonas aeruginosa [5]
  MIC: 1 µg/mL (≈ 1.88 µM)
Staphylococcus aureus [6]
  MIC: 8 µg/mL (≈ 15.1 µM)
Staphylococcus aureus [7]
  MIC: 2 µg/mL (≈ 3.76 µM)
Escherichia coli [8]
  MIC: 2 µg/mL (≈ 3.76 µM)

## CCn1cc(C(=O)O)c(=O)c2cc(F)c(N3CCN(C(=O)/C(C#N)=C/c4c(C)[nH]c5ccccc45)CC3)cc21
Pseudomonas aeruginosa [1]
  MIC: 1 µg/mL (≈ 1.9 µM)
Klebsiella pneumoniae
  MIC: 2 µg/mL (≈ 3.79 µM)
Enterococcus faecalis
  MIC: 1 µg/mL (≈ 1.9 µM)
Acinetobacter baumannii
  MIC: 1 µg/mL (≈ 1.9 µM)
Staphylococcus aureus [2]
  MIC: 1 µg/mL (≈ 1.9 µM)
Escherichia coli [3]
  MIC: 1 µg/mL (≈ 1.9 µM)
Staphylococcus aureus [4]
  MIC: 4 µg/mL (≈ 7.58 µM)
Pseudomonas aeruginosa [5]
  MIC: 0.5 µg/mL (≈ 0.948 µM)
Staphylococcus aureus [6]
  MIC: 2 µg/mL (≈ 3.79 µM)
Staphylococcus aureus [7]
  MIC: 0.25 µg/mL (≈ 0.474 µM)
Escherichia coli [8]
  MIC: 0.25 µg/mL (≈ 0.474 µM)

## CCCn1cc(/C=C(\C#N)C(=O)N2CCN(c3cc4c(cc3F)c(=O)c(C(=O)O)cn4CC)CC2)c2ccccc21
Pseudomonas aeruginosa [1]
  MIC: 0.5 µg/mL (≈ 0.9 µM)
Klebsiella pneumoniae
  MIC: 0.25 µg/mL (≈ 0.45 µM)
Enterococcus faecalis
  MIC: 1 µg/mL (≈ 1.8 µM)
Acinetobacter baumannii
  MIC: 0.25 µg/mL (≈ 0.45 µM)
Staphylococcus aureus [2]
  MIC: 0.5 µg/mL (≈ 0.9 µM)
Escherichia coli [3]
  MIC: 0.5 µg/mL (≈ 0.9 µM)
Staphylococcus aureus [4]
  MIC: 4 µg/mL (≈ 7.2 µM)
Pseudomonas aeruginosa [5]
  MIC: 1 µg/mL (≈ 1.8 µM)
Staphylococcus aureus [6]
  MIC: 2 µg/mL (≈ 3.6 µM)
Staphylococcus aureus [7]
  MIC: 1 µg/mL (≈ 1.8 µM)
Escherichia coli [8]
  MIC: 0.25 µg/mL (≈ 0.45 µM)

## CCn1cc(C(=O)O)c(=O)c2cc(F)c(N3CCN(C(=O)/C(C#N)=C/c4c[nH]c5ccc(Cl)cc45)CC3)cc21
Pseudomonas aeruginosa [1]
  MIC: 2 µg/mL (≈ 3.65 µM)
Klebsiella pneumoniae
  MIC: 1 µg/mL (≈ 1.82 µM)
Enterococcus faecalis
  MIC: 1 µg/mL (≈ 1.82 µM)
Acinetobacter baumannii
  MIC: 1 µg/mL (≈ 1.82 µM)
Staphylococcus aureus [2]
  MIC: 1 µg/mL (≈ 1.82 µM)
Escherichia coli [3]
  MIC: 0.25 µg/mL (≈ 0.456 µM)
Staphylococcus aureus [4]
  MIC: 16 µg/mL (≈ 29.2 µM)
Pseudomonas aeruginosa [5]
  MIC: 0.25 µg/mL (≈ 0.456 µM)
Staphylococcus aureus [6]
  MIC: 1 µg/mL (≈ 1.82 µM)
Staphylococcus aureus [7]
  MIC: 2 µg/mL (≈ 3.65 µM)
Escherichia coli [8]
  MIC: 0.25 µg/mL (≈ 0.456 µM)

## CCCCCCCCn1cc(/C=C(\C#N)C(=O)N2CCN(c3cc4c(cc3F)c(=O)c(C(=O)O)cn4CC)CC2)c2ccccc21
Pseudomonas aeruginosa [1]
  MIC: 16 µg/mL (≈ 25.6 µM)
Klebsiella pneumoniae
  MIC: 2 µg/mL (≈ 3.2 µM)
Enterococcus faecalis
  MIC: 1 µg/mL (≈ 1.6 µM)
Acinetobacter baumannii
  MIC: 8 µg/mL (≈ 12.8 µM)
Staphylococcus aureus [2]
  MIC: 1 µg/mL (≈ 1.6 µM)
Escherichia coli [3]
  MIC: 64 µg/mL (≈ 102 µM)
Staphylococcus aureus [4]
  MIC: 0.25 µg/mL (≈ 0.4 µM)
Pseudomonas aeruginosa [5]
  MIC: 32 µg/mL (≈ 51.1 µM)
Staphylococcus aureus [6]
  MIC: 0.5 µg/mL (≈ 0.799 µM)
Staphylococcus aureus [7]
  MIC: 1 µg/mL (≈ 1.6 µM)
Escherichia coli [8]
  MIC: 4 µg/mL (≈ 6.39 µM)

## CCn1cc(/C=C(\C#N)C(=O)N2CCN(c3cc4c(cc3F)c(=O)c(C(=O)O)cn4CC)CC2)c2ccccc21
Pseudomonas aeruginosa [1]
  MIC: 4 µg/mL (≈ 7.39 µM)
Klebsiella pneumoniae
  MIC: 0.25 µg/mL (≈ 0.462 µM)
Enterococcus faecalis
  MIC: 0.5 µg/mL (≈ 0.923 µM)
Acinetobacter baumannii
  MIC: 1 µg/mL (≈ 1.85 µM)
Staphylococcus aureus [2]
  MIC: 0.25 µg/mL (≈ 0.462 µM)
Escherichia coli [3]
  MIC: 64 µg/mL (≈ 118 µM)
Staphylococcus aureus [4]
  MIC: 0.25 µg/mL (≈ 0.462 µM)
Pseudomonas aeruginosa [5]
  MIC: 1 µg/mL (≈ 1.85 µM)
Staphylococcus aureus [6]
  MIC: 0.25 µg/mL (≈ 0.462 µM)
Staphylococcus aureus [7]
  MIC: 0.25 µg/mL (≈ 0.462 µM)
Escherichia coli [8]
  MIC: 2 µg/mL (≈ 3.69 µM)

## C=CCn1cc(/C=C(\C#N)C(=O)N2CCN(c3cc4c(cc3F)c(=O)c(C(=O)O)cn4CC)CC2)c2ccccc21
Pseudomonas aeruginosa [1]
  MIC: 1 µg/mL (≈ 1.81 µM)
Klebsiella pneumoniae
  MIC: 1 µg/mL (≈ 1.81 µM)
Enterococcus faecalis
  MIC: 8 µg/mL (≈ 14.5 µM)
Acinetobacter baumannii
  MIC: 2 µg/mL (≈ 3.61 µM)
Staphylococcus aureus [2]
  MIC: 1 µg/mL (≈ 1.81 µM)
Escherichia coli [3]
  MIC: 8 µg/mL (≈ 14.5 µM)
Staphylococcus aureus [4]
  MIC: 1 µg/mL (≈ 1.81 µM)
Pseudomonas aeruginosa [5]
  MIC: 0.25 µg/mL (≈ 0.452 µM)
Staphylococcus aureus [6]
  MIC: 2 µg/mL (≈ 3.61 µM)
Staphylococcus aureus [7]
  MIC: 16 µg/mL (≈ 28.9 µM)
Escherichia coli [8]
  MIC: 1 µg/mL (≈ 1.81 µM)

## CCn1cc(C(=O)O)c(=O)c2cc(F)c(N3CCN(C(=O)/C(C#N)=C/c4cn(Cc5ccccc5)c5ccccc45)CC3)cc21
Pseudomonas aeruginosa [1]
  MIC: 256 µg/mL (≈ 424 µM)
Klebsiella pneumoniae
  MIC: 0.5 µg/mL (≈ 0.828 µM)
Enterococcus faecalis
  MIC: 4 µg/mL (≈ 6.63 µM)
Acinetobacter baumannii
  MIC: 2 µg/mL (≈ 3.31 µM)
Staphylococcus aureus [2]
  MIC: 4 µg/mL (≈ 6.63 µM)
Escherichia coli [3]
  MIC: 1 µg/mL (≈ 1.66 µM)
Staphylococcus aureus [4]
  MIC: 4 µg/mL (≈ 6.63 µM)
Pseudomonas aeruginosa [5]
  MIC: 1 µg/mL (≈ 1.66 µM)
Staphylococcus aureus [6]
  MIC: 4 µg/mL (≈ 6.63 µM)
Staphylococcus aureus [7]
  MIC: 4 µg/mL (≈ 6.63 µM)
Escherichia coli [8]
  MIC: 2 µg/mL (≈ 3.31 µM)

## CCn1cc(C(=O)O)c(=O)c2cc(F)c(N3CCN(C(=O)/C(C#N)=C/c4cn(CC#N)c5ccccc45)CC3)cc21
Pseudomonas aeruginosa [1]
  MIC: 0.5 µg/mL (≈ 0.905 µM)
Klebsiella pneumoniae
  MIC: 0.5 µg/mL (≈ 0.905 µM)
Enterococcus faecalis
  MIC: 1 µg/mL (≈ 1.81 µM)
Acinetobacter baumannii
  MIC: 1 µg/mL (≈ 1.81 µM)
Staphylococcus aureus [2]
  MIC: 4 µg/mL (≈ 7.24 µM)
Escherichia coli [3]
  MIC: 2 µg/mL (≈ 3.62 µM)
Staphylococcus aureus [4]
  MIC: 0.5 µg/mL (≈ 0.905 µM)
Pseudomonas aeruginosa [5]
  MIC: 0.5 µg/mL (≈ 0.905 µM)
Staphylococcus aureus [6]
  MIC: 2 µg/mL (≈ 3.62 µM)
Staphylococcus aureus [7]
  MIC: 1 µg/mL (≈ 1.81 µM)
Escherichia coli [8]
  MIC: 2 µg/mL (≈ 3.62 µM)

## CCn1cc(C(=O)O)c(=O)c2cc(F)c(N3CCN(C(=O)/C(C#N)=C/c4cn(Cc5cccc(Cl)c5)c5ccccc45)CC3)cc21
Pseudomonas aeruginosa [1]
  MIC: 32 µg/mL (≈ 50.1 µM)
Klebsiella pneumoniae
  MIC: 0.5 µg/mL (≈ 0.784 µM)
Enterococcus faecalis
  MIC: 8 µg/mL (≈ 12.5 µM)
Acinetobacter baumannii
  MIC: 8 µg/mL (≈ 12.5 µM)
Staphylococcus aureus [2]
  MIC: 32 µg/mL (≈ 50.1 µM)
Escherichia coli [3]
  MIC: 16 µg/mL (≈ 25.1 µM)
Staphylococcus aureus [4]
  MIC: 2 µg/mL (≈ 3.13 µM)
Pseudomonas aeruginosa [5]
  MIC: 0.25 µg/mL (≈ 0.392 µM)
Staphylococcus aureus [6]
  MIC: 1 µg/mL (≈ 1.57 µM)
Staphylococcus aureus [7]
  MIC: 4 µg/mL (≈ 6.27 µM)
Escherichia coli [8]
  MIC: 8 µg/mL (≈ 12.5 µM)

## CCn1cc(C(=O)O)c(=O)c2cc(F)c(N3CCN(C(=O)/C(C#N)=C/c4cn(Cc5cccc(F)c5)c5ccccc45)CC3)cc21
Pseudomonas aeruginosa [1]
  MIC: 2 µg/mL (≈ 3.22 µM)
Klebsiella pneumoniae
  MIC: 1 µg/mL (≈ 1.61 µM)
Enterococcus faecalis
  MIC: 16 µg/mL (≈ 25.7 µM)
Acinetobacter baumannii
  MIC: 0.5 µg/mL (≈ 0.804 µM)
Staphylococcus aureus [2]
  MIC: 32 µg/mL (≈ 51.5 µM)
Escherichia coli [3]
  MIC: 0.25 µg/mL (≈ 0.402 µM)
Staphylococcus aureus [4]
  MIC: 16 µg/mL (≈ 25.7 µM)
Pseudomonas aeruginosa [5]
  MIC: 1 µg/mL (≈ 1.61 µM)
Staphylococcus aureus [6]
  MIC: 16 µg/mL (≈ 25.7 µM)
Staphylococcus aureus [7]
  MIC: 8 µg/mL (≈ 12.9 µM)
Escherichia coli [8]
  MIC: 0.25 µg/mL (≈ 0.402 µM)

## CCn1cc(C(=O)O)c(=O)c2cc(F)c(N3CCN(C(=O)/C(C#N)=C/c4cn(CC(N)=O)c5ccccc45)CC3)cc21
Pseudomonas aeruginosa [1]
  MIC: 8 µg/mL (≈ 14 µM)
Klebsiella pneumoniae
  MIC: 1 µg/mL (≈ 1.75 µM)
Enterococcus faecalis
  MIC: 16 µg/mL (≈ 28 µM)
Acinetobacter baumannii
  MIC: 8 µg/mL (≈ 14 µM)
Staphylococcus aureus [2]
  MIC: 32 µg/mL (≈ 56.1 µM)
Escherichia coli [3]
  MIC: 0.5 µg/mL (≈ 0.876 µM)
Staphylococcus aureus [4]
  MIC: 8 µg/mL (≈ 14 µM)
Pseudomonas aeruginosa [5]
  MIC: 1 µg/mL (≈ 1.75 µM)
Staphylococcus aureus [6]
  MIC: 0.25 µg/mL (≈ 0.438 µM)
Staphylococcus aureus [7]
  MIC: 16 µg/mL (≈ 28 µM)
Escherichia coli [8]
  MIC: 0.25 µg/mL (≈ 0.438 µM)
